One assay deals with MRL/lpr lupus model. The following applies: cited from earlier work.
The subject of assay [1] is T cell receptor (TCR) signaling. The following applies: cited from earlier work.
Assay [2] has as its system mast cell and basophil degranulation. The following applies: cited from earlier work.
Assay [3] deals with collagen-induced arthritis. To be noted: mice, orally dosed; cited from earlier work.
The test system of assay [4] is BCR (B cell receptor) signaling in human B cells. The following applies: cited from earlier work.
The test system of assay [5] is pancreatic cancer cell lines with a DPC4 deletion (BxPC-3 and CFPAC-1) vs DPC4 wildtype (MIA PaCa-2 and PANC-1). The experiment in a line: Cell viability by Cell Titer-Glo after 96 hours of drug treatment, pancreatic cancer cell lines. It counts as cell-based, human. To be noted: BxPC-3 and CFPAC-1 vs MIA PaCa-2 and PANC-1, FIG. 5A, *p<0.05, **p<0.0001. The method, then:
Cell viability was measured by Cell Titer-Glo after 96 hours of drug treatment.

Each structure is given as a SMILES string.

As to `C=CC(=O)N1CCC[C@@H](n2nc(-c3ccc(Oc4ccccc4)cc3)c3c(N)ncnc32)C1` [PCI-32765], the “auto-antibody production and development of kidney disease” value in the assay on MRL/lpr lupus model is reported as “inhibited”. Further, the “effect on TCR signaling” value in assay [1] is “does not affect”. In assay [2], the “inhibition of mast cell and basophil degranulation” value is “potent inhibitor”. Besides, in assay [3], the “course of collagen induced arthritis” value is recorded as “reversed” and the “level of circulating autoantibodies” value is recorded as “reduced”. In addition, in assay [4], the “effect on BCR signaling” value was “blocks”. Further, in assay [5], the “activity (inhibition of cell growth) in DPC4 deleted vs DPC4 wildtype pancreatic cancer cell lines” value was “more activity”.
